SMILES strings stand for the structures.

In turn, `CCOC(=O)c1cn(C2CC2)c2c(F)c(CCc3cc(Cc4cnc(N)nc4N)cc(OC)c3OC)c(F)cc2c1=O` showed a melting point of 218 to 220 °C.

The compound `CC(C)CCN1C(=O)C(NC(=O)Oc2cccc(N(C)C)c2)C(=O)N(c2ccccc2F)c2ccccc21` (centres undefined) displayed a melting point of 193 to 194 °C.

As for `N=C(N)NCCCc1cc[nH]n1`, the melting point was determined as 210 °C.

For the compound `Cc1cccc(NC(=O)N(C)C)c1`, the melting point lay in the range of 124 to 127 °C.

Regarding `Cc1cc(C)n(-c2ncc(Br)c(Nc3ccc(Cl)cc3)n2)n1`, the melting point is 144 to 154 °C.

As for `CCOC(=O)C1=C(C)NN=C(C(=O)OC)C1c1cccnc1` (centres undefined), the melting point was 179 °C.

Compound `CN(C(=O)c1cccc(S(=O)(=O)N(C)c2ccc(Br)cc2)c1)c1ccc(Br)cc1F` displayed a melting point of 136 to 137 °C.

The compound `O=[N+]([O-])c1ccc(-c2scc3c2OCCO3)cc1` had a melting point of 184 to 186 °C.

In the case of `CSCCN(C)C(=O)N(C)c1cnc(-c2cncc(F)c2)s1`, the melting point was in the range of 68 to 69 °C.

Regarding `OC(CCCl)COc1ccc(Cl)c(Cl)c1` (centres undefined), the melting point was 82 to 84 °C.

Turning to `Nc1nc(N)nc(-c2ccc(-c3ccc([N+](=O)[O-])cc3)cc2)n1`, the melting point is above 250 °C.

As to `N#Cc1cccc(N=C(NCC(=O)O)NCC2CCCCC2)c1`, the melting point was in the range of 80 to 83 °C.

`CCCCNS(=O)(=O)c1cc(C(=O)O)cc(N)c1Sc1ccc(NC(C)=O)cc1` came in with a melting point of 228 to 229 °C.

`CN(Cc1ccccc1CC(=O)O)C(=O)OC(C)(C)C` gave a melting point of 96 to 98 °C.

Turning to `COC(=O)c1ccc2c(c1)C(SCCO)c1ccccc1CC2` (centres undefined), the melting point was 107 to 109 °C.

Turning to `C/C=C/C(=O)NC(=O)OC(C)(C)C`, the melting point is 138 to 139 °C.

For `CC1(C)C(=O)Nc2ccc(-c3coc(C#N)c3)cc21`, the melting point lay in the range of 200 to 201 °C.

Take `OCc1cn2c(n1)CN=C(c1ccccc1)c1cc(Cl)ccc1-2`: the melting point lay within 203 to 204 °C.

Compound `CSc1cc(C)c(C(=O)N=C(N)N)cc1S(C)(=O)=O` had a melting point of 220 to 222 °C.

Consider `COC(=O)[C@H](CCCO)NC(=O)[C@H](Cc1ccccc1)NC(=O)OCc1ccccc1`, for which the melting point lay in the range of 155 to 157 °C.

As for `COC(=O)C(CSc1ccccc1)N1CC(NC(=O)C(=NO)c2ccccc2)C1=O` (centres undefined), the melting point is 163 to 169 °C.

In turn, `O=C(c1ccc2[nH]c3ccccc3c2c1)N1CCCCC1` came in with a melting point of 221 to 222 °C.

`CCOC(=O)Cc1cc2cc(Br)ccc2s1` came in with a melting point of 56 to 57 °C.

On to `O=C1Nc2ccc(S(=O)(=O)N3CCCC3)cc2C1=O`, for which the melting point is 200 to 201 °C.

`Cc1cccc2c1C(=O)N1CCC[C@H]1c1c(C(=O)OC(C)(C)C)ncn1-2` returned a melting point of 192 to 194 °C.

`O=C(Nc1cnc(-c2ccccc2)nc1Cl)OCc1ccccc1` gave a melting point of 120 to 121 °C.

For `Cc1c(C(=O)O)ccc(S(C)(=O)=O)c1S(C)(=O)=O`, the melting point is 192 to 198 °C.

`CCCOc1ccc(S(=O)(=O)N2CCNCC2)cc1-c1nc2c(CCC)nn(C)c2c(=O)[nH]1` registered a melting point of 185 to 186 °C.

`Cn1ncc(C(=O)N2CCCC2)c1C(=O)Nc1ccn2nc(N3CCOCC3)nc2c1` gave a melting point of 210 to 212 °C.

Compound `Clc1ccc2c(c1)C=C(Cn1ccnc1)c1ccsc1S2` showed a melting point of 154 to 156 °C.

In the case of `COC(=O)c1ccc(CCCCc2c(C)cc(C)cc2C)cc1`, the melting point lay in the range of 52 to 53 °C.

In turn, `COc1ccc2c(c1)CC[C@@H]1[C@@H]2CC[C@@]2(C)[C@H]1CCC21CC(O)CO1` (some centres undefined) displayed a melting point of 95 to 97 °C.

`COc1ccc(-c2cc(-c3ccccc3)[nH]c2C(=O)NCc2ccc(C(=O)Nc3ncccn3)cc2)cc1` returned a melting point of 190 to 191 °C.

The compound `CCCCCCCCCCCCCCCCCC(=S)SCC(C)C(=O)N1CCCC1C(=O)O` (centres undefined) gave a melting point of 50 to 51 °C.

`O=S(=O)(c1ccccc1)C1C2CCC(C2)C1Br` (centres undefined) returned a melting point of 108 to 110 °C.

`COc1ccc(F)cc1C(C)(C)CC(O)(Cn1ccc(=N)c2ccccc21)C(F)(F)F` (centres undefined) gave a melting point of 137 to 140 °C.

For `Cc1cc(SC2CC(=O)N(C)C2=O)cc(C(C)(C)C)c1N` (centres undefined), the melting point was 92 to 94 °C.

On to `O=C(O)C1CCCC(C(=O)O)C1` (centres undefined), for which the melting point lay within 163 to 165 °C.

For `CC(C)CCC1(c2ccccc2)CC(O)=C(Sc2ccccc2C(=O)O)C(=O)O1` (centres undefined), the melting point is 99 to 101 °C.

Turning to `CC(C)(C)OC(=O)[C@@H]1CCCN2C(=O)CC[C@H](NS(C)(=O)=O)C(=O)N12`, the melting point lay within 68 to 70 °C.

In the case of `Cc1c(C(=O)C=Cc2ccccc2F)c2ccccc2n1CCN1CCOCC1`, the melting point was in the range of 113 to 116 °C.

`COCCOc1cccc2c(Nc3ccccc3C)c(C(=O)C(C)C)cnc12` came in with a melting point of 68 to 70 °C.

As for `Cc1nc2c(-c3cccc(N4CCC(N5CCCC5)CC4)c3)cnn2c(N)c1-c1ccc(F)cc1`, the melting point was 244 to 249 °C.

`Cc1ccccc1CC(=NC#N)NC(NC(=O)Cc1ccc2ncccc2c1)C(C)(C)C` (centres undefined) gave a melting point of 172 to 173 °C.

For `COc1cccc(Cc2nnc(NCCSCc3nccs3)[nH]c2=O)c1`, the melting point fell in the range of 128 to 129 °C.

`CCOC(=O)CCC(=O)c1ccc(OCCCCCBr)c(CCC(=O)OCC)c1` yielded a melting point of 40 to 41 °C.

In turn, `COC=C(C(=O)OC)c1ccc(OC(C)=O)cc1` came in with a melting point of 69 to 70 °C.

For the compound `COc1cc(C(=O)O)c(-c2cc3cc(O)ccc3[nH]2)cc1OC`, the melting point was 160 °C.

As to `Cc1cn(-c2cc3c(cc2C(F)(F)F)[nH]c(=O)c2n[nH]c(=O)n23)c(C)n1`, the melting point is above 330 °C.

On to `Cc1ccc(CNc2cccc3c2CN(C2CCC(=O)NC2=O)C3=O)o1` (centres undefined), for which the melting point fell in the range of 242 to 244 °C.

The compound `COC(=O)c1cc(-c2nnnn2C)c(C(=O)OC)s1` had a melting point of 149 to 151 °C.

Take `O=C(c1ccc(F)cc1)c1ccc(Br)cc1`: the melting point lay in the range of 106 to 107 °C.

As for `CCCCOCCOc1ccc(-c2ccc3c(c2)C=C(C(=O)Nc2ccc(CN(C)C4CCOCC4)cc2)CCS3(=O)=O)cc1`, the melting point is 194 to 196 °C.

Take `Cc1ccc2ncc(Oc3c(Cl)cc(NS(=O)(=O)c4cc(C)c(Cl)cc4Cl)cc3Cl)cc2c1`: the melting point fell in the range of 228 to 230 °C.

`C=Cc1ccc(Nc2c(C(=O)NOCCO)ccc(F)c2F)c(F)c1`: the melting point was in the range of 134 to 137 °C.

For the compound `Cc1cccc(Sc2c(O)cc(-c3ccccc3)oc2=O)c1`, the melting point fell in the range of 197 to 198 °C.

For the compound `S=C=Nc1ccccc1-c1ccc(Cl)cc1`, the melting point came out at 63 °C.

With `O=C(c1ccc(F)cc1)C1CCN(CCCn2c(=O)[nH]c3cccc(Cl)c32)CC1`, the melting point turned out to be 138 °C.

In turn, `CC(=O)c1c(C)[nH]c(C2CCCC2)c1C` had a melting point of 162 to 164 °C.

On to `Cc1oc(-c2ccc(F)cc2)cc1C(=O)O`, for which the melting point lay within 217 to 218 °C.

`O=C(O)c1c(Oc2ccccc2)cccc1Oc1ccccc1` gave a melting point of 164 to 165 °C.

In the case of `Cc1cc(-c2ccc(S(N)(=O)=O)cc2)n(-c2ccc(F)cc2)c1Cl`, the melting point is 119 to 120 °C.

In the case of `COC(=O)CCC(=O)Oc1c(C)c(C)c2c(c1C)SC(C)O2` (centres undefined), the melting point is 73 to 75 °C.

As for `COC(=O)/C=C/n1cnc2ccc(OC(C)C)cc2c1=O`, the melting point fell in the range of 156 to 158 °C.

Values taken from a melting point compilation (Tetko et al.; mined from patent text by program, amines drawn as free bases though some values may be those of a salt).
